Measurements published in US20100016547A1, “Glycosilated Peptide and Medicine Comprising It as an Effective Ingredient” (priority 2005, published 2010).

Key:
GLP-1 receptor [1] = biological target: T1, GLP-1 receptor (Homo sapiens, UniProt P43220); test: Assay for production of cAMP
Method: Assay for Production of cAMP
After stirring at room temperature for an hour, the cells were lysed with Triton X-100 (final concentration: 1%).
Quantity of cAMP was determined using cAMP Femtomolar Kit (CIS Bio International). The reaction solution (1 μL) was moved to a new 384-well plate and diluted by adding 9 μL of dilution buffer. Next, each 5 μL of cAMP-XL665 solution and anti-cAMP cryptate solution of the Kit was added, the mixture was incubated at room temperature for an hour, and time-resolved fluorescence was measured using RUBYstar (BMG LABTECH).

GLP-1 receptor [2] = biological target: T1, GLP-1 receptor
Method: After being incubated at room temperature for 2 hours, the solution was filtered through a unifilter 96GF/C plate (Perkin-Elmer) pretreated with 1% polyethylenimine containing 0.5% BSA, washed with 25 mM HEPES buffer solution (pH 7.4) containing 0.5% BSA, and radioactivity remained on the filter was measured by a gamma counter (Top Counter; Perkin-Elmer).

T1 sequence (P43220 24-463, species assumed): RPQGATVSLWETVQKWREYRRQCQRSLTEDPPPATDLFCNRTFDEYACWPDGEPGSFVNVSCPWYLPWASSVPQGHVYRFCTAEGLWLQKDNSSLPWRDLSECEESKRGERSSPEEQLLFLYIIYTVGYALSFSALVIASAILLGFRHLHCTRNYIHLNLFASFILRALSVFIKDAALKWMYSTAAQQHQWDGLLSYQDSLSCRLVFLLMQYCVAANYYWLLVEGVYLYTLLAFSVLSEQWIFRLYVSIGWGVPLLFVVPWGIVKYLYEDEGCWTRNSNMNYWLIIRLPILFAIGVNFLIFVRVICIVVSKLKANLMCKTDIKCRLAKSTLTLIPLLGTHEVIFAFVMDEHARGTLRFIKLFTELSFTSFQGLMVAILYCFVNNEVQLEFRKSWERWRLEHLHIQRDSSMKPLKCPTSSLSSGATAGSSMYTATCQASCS

Compound	EC50 (GLP-1 receptor [1])	IC50 (GLP-1 receptor [2])
CC[C@H](C)[C@H](NC(=O)[C@H](Cc1ccccc1)NC(=O)[C@H](CCC(=O)O)NC(=O)[C@H](CCCCN)NC(=O)[C@H](C)NC(=O)[C@H](C)NC(=O)[C@H](CCC(N)=O)NC(=O)CNC(=O)[C@H](CCC(=O)O)NC(=O)[C@H](CC(C)C)NC(=O)[C@H](Cc1ccc(O)cc1)NC(=O)[C@H](CO)NC(=O)[C@H](CO)NC(=O)[C@@H](NC(=O)[C@H](CC(=O)O)NC(=O)[C@H](CO)NC(=O)[C@@H](NC(=O)[C@H](Cc1ccccc1)NC(=O)[C@@H](NC(=O)CNC(=O)[C@H](CCC(=O)O)NC(=O)[C@H](C)NC(=O)[C@@H](N)Cc1c[nH]cn1)[C@@H](C)O)[C@@H](C)O)C(C)C)C(=O)N[C@@H](C)C(=O)N[C@@H](Cc1c[nH]c2ccccc12)C(=O)N[C@@H](CC(C)C)C(=O)N[C@H](C(=O)N[C@@H](CSCC(=O)N[C@@H](CC(=O)N[C@@H]1O[C@H](CO)[C@@H](O[C@@H]2O[C@H](CO)[C@@H](O[C@@H]3O[C@H](CO[C@H]4O[C@H](CO)[C@@H](O)[C@H](O)[C@@H]4O[C@@H]4O[C@H](CO)[C@@H](O[C@@H]5O[C@H](CO[C@]6(C(=O)O)C[C@H](O)[C@@H](NC(C)=O)[C@H]([C@H](O)[C@H](O)CO)O6)[C@H](O)[C@H](O)[C@H]5O)[C@H](O)[C@H]4NC(C)=O)[C@@H](O)[C@H](O[C@H]4O[C@H](CO)[C@@H](O)[C@H](O)[C@@H]4O[C@@H]4O[C@H](CO)[C@@H](O[C@@H]5O[C@H](CO[C@]6(C(=O)O)C[C@H](O)[C@@H](NC(C)=O)[C@H]([C@H](O)[C@H](O)CO)O6)[C@H](O)[C@H](O)[C@H]5O)[C@H](O)[C@H]4NC(C)=O)[C@@H]3O)[C@H](O)[C@H]2NC(C)=O)[C@H](O)[C@H]1NC(C)=O)C(=O)O)C(=O)NCC(=O)N[C@@H](CCCNC(=N)N)C(N)=O)C(C)C [GL34CE1]	0.72 nM	3.5 nM
CC[C@H](C)[C@H](NC(=O)[C@H](Cc1ccccc1)NC(=O)[C@H](CCC(=O)O)NC(=O)[C@H](CCCCN)NC(=O)[C@H](C)NC(=O)[C@H](C)NC(=O)[C@H](CCC(N)=O)NC(=O)CNC(=O)[C@H](CCC(=O)O)NC(=O)[C@H](CC(C)C)NC(=O)[C@H](Cc1ccc(O)cc1)NC(=O)[C@H](CO)NC(=O)[C@H](CO)NC(=O)[C@@H](NC(=O)[C@H](CC(=O)O)NC(=O)[C@H](CO)NC(=O)[C@@H](NC(=O)[C@H](Cc1ccccc1)NC(=O)[C@@H](NC(=O)CNC(=O)[C@H](CCC(=O)O)NC(=O)[C@H](C)NC(=O)[C@@H](N)Cc1c[nH]cn1)[C@@H](C)O)[C@@H](C)O)C(C)C)C(=O)N[C@@H](C)C(=O)N[C@@H](Cc1c[nH]c2ccccc12)C(=O)N[C@@H](CC(C)C)C(=O)N[C@H](C(=O)N[C@@H](CSCC(=O)N[C@@H](CCC(=O)N[C@@H](CC(=O)N[C@@H]1O[C@H](CO)[C@@H](O[C@@H]2O[C@H](CO)[C@@H](O[C@@H]3O[C@H](CO[C@H]4O[C@H](CO)[C@@H](O)[C@H](O)[C@@H]4O[C@@H]4O[C@H](CO)[C@@H](O[C@@H]5O[C@H](CO[C@]6(C(=O)O)C[C@H](O)[C@@H](NC(C)=O)[C@H]([C@H](O)[C@H](O)CO)O6)[C@H](O)[C@H](O)[C@H]5O)[C@H](O)[C@H]4NC(C)=O)[C@@H](O)[C@H](O[C@H]4O[C@H](CO)[C@@H](O)[C@H](O)[C@@H]4O[C@@H]4O[C@H](CO)[C@@H](O[C@@H]5O[C@H](CO[C@]6(C(=O)O)C[C@H](O)[C@@H](NC(C)=O)[C@H]([C@H](O)[C@H](O)CO)O6)[C@H](O)[C@H](O)[C@H]5O)[C@H](O)[C@H]4NC(C)=O)[C@@H]3O)[C@H](O)[C@H]2NC(C)=O)[C@H](O)[C@H]1NC(C)=O)C(=O)O)C(=O)N[C@@H](CC(=O)N[C@@H]1O[C@H](CO)[C@@H](O[C@@H]2O[C@H](CO)[C@@H](O[C@@H]3O[C@H](CO[C@H]4O[C@H](CO)[C@@H](O)[C@H](O)[C@@H]4O[C@@H]4O[C@H](CO)[C@@H](O[C@@H]5O[C@H](CO[C@]6(C(=O)O)C[C@H](O)[C@@H](NC(C)=O)[C@H]([C@H](O)[C@H](O)CO)O6)[C@H](O)[C@H](O)[C@H]5O)[C@H](O)[C@H]4NC(C)=O)[C@@H](O)[C@H](O[C@H]4O[C@H](CO)[C@@H](O)[C@H](O)[C@@H]4O[C@@H]4O[C@H](CO)[C@@H](O[C@@H]5O[C@H](CO[C@]6(C(=O)O)C[C@H](O)[C@@H](NC(C)=O)[C@H]([C@H](O)[C@H](O)CO)O6)[C@H](O)[C@H](O)[C@H]5O)[C@H](O)[C@H]4NC(C)=O)[C@@H]3O)[C@H](O)[C@H]2NC(C)=O)[C@H](O)[C@H]1NC(C)=O)C(=O)O)C(=O)NCC(=O)N[C@@H](CCCNC(=N)N)C(N)=O)C(C)C [GL34CE2]	3.4 nM	20 nM
CC[C@H](C)[C@H](NC(=O)[C@H](Cc1ccccc1)NC(=O)[C@H](CCC(=O)O)NC(=O)[C@H](CCCCN)NC(=O)[C@H](C)NC(=O)[C@H](C)NC(=O)[C@H](CCC(N)=O)NC(=O)CNC(=O)[C@H](CCC(=O)O)NC(=O)[C@H](CC(C)C)NC(=O)[C@H](Cc1ccc(O)cc1)NC(=O)[C@H](CO)NC(=O)[C@H](CO)NC(=O)[C@@H](NC(=O)[C@H](CC(=O)O)NC(=O)[C@H](CO)NC(=O)[C@@H](NC(=O)[C@H](Cc1ccccc1)NC(=O)[C@@H](NC(=O)CNC(=O)[C@H](CCC(=O)O)NC(=O)[C@H](C)NC(=O)[C@@H](N)Cc1c[nH]cn1)[C@@H](C)O)[C@@H](C)O)C(C)C)C(=O)N[C@@H](C)C(=O)N[C@@H](Cc1c[nH]c2ccccc12)C(=O)N[C@@H](CC(C)C)C(=O)N[C@H](C(=O)N[C@@H](CC(=O)N[C@@H]1O[C@H](CO)[C@@H](O[C@@H]2O[C@H](CO)[C@H](O)[C@H](O)[C@H]2O)[C@H](O)[C@H]1NC(C)=O)C(=O)NCC(=O)N[C@@H](CCCNC(=N)N)C(N)=O)C(C)C [GL34NL]	0.11 nM	0.76 nM
CC[C@H](C)[C@H](NC(=O)[C@H](Cc1ccccc1)NC(=O)[C@H](CCC(=O)O)NC(=O)[C@H](CCCCN)NC(=O)[C@H](C)NC(=O)[C@H](C)NC(=O)[C@H](CCC(N)=O)NC(=O)CNC(=O)[C@H](CCC(=O)O)NC(=O)[C@H](CC(C)C)NC(=O)[C@H](Cc1ccc(O)cc1)NC(=O)[C@H](CO)NC(=O)[C@H](CO)NC(=O)[C@@H](NC(=O)[C@H](CC(=O)O)NC(=O)[C@H](CO)NC(=O)[C@@H](NC(=O)[C@H](Cc1ccccc1)NC(=O)[C@@H](NC(=O)CNC(=O)[C@H](CCC(=O)O)NC(=O)[C@H](C)NC(=O)[C@@H](N)Cc1c[nH]cn1)[C@@H](C)O)[C@@H](C)O)C(C)C)C(=O)N[C@@H](C)C(=O)N[C@@H](Cc1c[nH]c2ccccc12)C(=O)N[C@@H](CC(C)C)C(=O)N[C@H](C(=O)N[C@@H](CC(N)=O)C(=O)NCC(=O)N[C@@H](CCCNC(=N)N)C(N)=O)C(C)C [GL34N]	0.11 nM	1 nM

The remaining lines, values ahead:

EC50 (GLP-1 receptor [1])	IC50 (GLP-1 receptor [2])	Compound
0.17 nM	0.85 nM	CC[C@H](C)[C@H](NC(=O)[C@H](Cc1ccccc1)NC(=O)[C@H](CCC(=O)O)NC(=O)[C@H](CCCCN)NC(=O)[C@H](C)NC(=O)[C@H](C)NC(=O)[C@H](CCC(N)=O)NC(=O)CNC(=O)[C@H](CCC(=O)O)NC(=O)[C@H](CC(C)C)NC(=O)[C@H](Cc1ccc(O)cc1)NC(=O)[C@H](CO)NC(=O)[C@H](CO)NC(=O)[C@@H](NC(=O)[C@H](CC(=O)O)NC(=O)[C@H](CO)NC(=O)[C@@H](NC(=O)[C@H](Cc1ccccc1)NC(=O)[C@@H](NC(=O)CNC(=O)[C@H](CCC(=O)O)NC(=O)[C@H](C)NC(=O)[C@@H](N)Cc1c[nH]cn1)[C@@H](C)O)[C@@H](C)O)C(C)C)C(=O)N[C@@H](C)C(=O)N[C@@H](Cc1c[nH]c2ccccc12)C(=O)N[C@@H](CC(C)C)C(=O)N[C@H](C(=O)N[C@@H](CC(=O)N[C@@H]1O[C@H](CO)[C@@H](O)[C@H](O)[C@H]1NC(C)=O)C(=O)NCC(=O)N[C@@H](CCCNC(=N)N)C(N)=O)C(C)C [GL34NG]
1 nM	21 nM	CC[C@H](C)[C@H](NC(=O)[C@H](Cc1ccccc1)NC(=O)[C@H](CCC(=O)O)NC(=O)[C@H](CC(=O)N[C@@H]1O[C@H](CO)[C@@H](O[C@@H]2O[C@H](CO[C@]3(C(=O)O)C[C@H](O)[C@@H](NC(C)=O)[C@H]([C@H](O)[C@H](O)CO)O3)[C@H](O)[C@H](O)[C@H]2O)[C@H](O)[C@H]1NC(C)=O)NC(=O)[C@H](C)NC(=O)[C@H](C)NC(=O)[C@H](CCC(N)=O)NC(=O)CNC(=O)[C@H](CCC(=O)O)NC(=O)[C@H](CC(C)C)NC(=O)[C@H](Cc1ccc(O)cc1)NC(=O)[C@H](CO)NC(=O)[C@H](CO)NC(=O)[C@@H](NC(=O)[C@H](CC(=O)O)NC(=O)[C@H](CO)NC(=O)[C@@H](NC(=O)[C@H](Cc1ccccc1)NC(=O)[C@@H](NC(=O)CNC(=O)[C@H](CCC(=O)O)NC(=O)[C@H](C)NC(=O)[C@@H](N)Cc1c[nH]cn1)[C@@H](C)O)[C@@H](C)O)C(C)C)C(=O)N[C@@H](C)C(=O)N[C@@H](Cc1c[nH]c2ccccc12)C(=O)N[C@@H](CC(C)C)C(=O)N[C@H](C(=O)N[C@@H](CCCCN)C(=O)NCC(=O)N[C@@H](CCCNC(=N)N)C(=O)N[C@@H](CC(=O)N[C@@H]1O[C@H](CO)[C@@H](O[C@@H]2O[C@H](CO[C@]3(C(=O)O)C[C@H](O)[C@@H](NC(C)=O)[C@H]([C@H](O)[C@H](O)CO)O3)[C@H](O)[C@H](O)[C@H]2O)[C@H](O)[C@H]1NC(C)=O)C(N)=O)C(C)C [GL2637NS6]
